The record followed here is PubChem BioAssay (NCI).

Values joined by “and” are separate entries in the source; they are usually repeats but may differ in a detail not shown here. Equal entries are not always repeated.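 In this assay, cells in 96-well plates receive the compound at five concentrations for 48 hours. Endpoints are linearly interpolated between the surrounding concentrations. GI50 = concentration required for 50% inhibition of growth. At the TGI there is no net growth.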 Where a SMILES comes first, the peptide text is derived from it. The star is where a group is joined. Trt = c1ccc(C(c2ccccc2)(c2ccccc2)*)cc1; Cbz = O=C(OCc1ccccc1)*

What all share (test): inhibition of tumour cell growth, NCI panel, 48 h
For assay [1], the system named is 786-0 renal.
In assay [2] the test system is A498 renal.
The subject of assay [3] is HCT-15 colon.
Assay [4] has as its system IGROV1 ovarian.
Assay [5] deals with LOX IMVI melanoma.
The test system of assay [6] is MDA-MB-231 breast.
Assay [7] deals with NCI-H226 lung.
Assay [8] relates to NCI-H23 lung.
In assay [9] the test system is SF-295 CNS.
The test system of assay [10] is EKVX NSCLC.

Regarding `O=C1NC(=NCc2ccccc2Cl)S/C1=C\c1ccc2ncccc2c1`, the GI50 in assay [1] was 16.3 µM; in [2] it was 4.21 µM; in [3], 4.33 µM; in assay [4], 9.01 µM; in assay [5], 8.86 µM; in [6], greater than 25 µM. The figures for the GI50 in [7], in [8] and in assay [9] were greater than 18.3 µM, 13.5 µM and 9.59 µM, respectively. Also, the TGI in assay [1] was greater than 25 µM; in assay [2] it was greater than 21.5 µM; in [3], greater than 25 µM; in assay [4], greater than 25 µM; in assay [5], greater than 25 µM; in assay [6], greater than 25 µM. Further, the TGI in assay [7], in [8] and in [9] was greater than 25 µM in each case.
With `COc1cc(-c2cc(/C=C/C(=O)c3ccc(F)c(F)c3)[nH]n2)cc(OC)c1OC`, the GI50 in assay [1] is 3.35 µM; in assay [2], 2.11 µM; in assay [3], 3.01 µM; in assay [4], 3.62 µM; in [5], 3.18 µM; in [6], 1.64 µM. Besides, the results for the GI50 in assay [7] and in [8] were 3.72 µM and 2.6 µM, respectively. For the same compound, the TGI was 15.7 µM in [1]; 7.13 µM in assay [2]; greater than 100 µM in assay [3]; 87 µM in assay [4]; 12.2 µM in assay [5]; 4.58 µM in assay [6]. Besides, the TGI was 15.8 µM in [7] and 8.5 µM in assay [8].
For `COc1cc(CNCCCCCCN2C(=O)c3cccc4cccc(c34)C2=O)ccc1O`, the GI50 was 5.59 µM in [1]; 0.735 µM in assay [2]; 13.1 µM in assay [10]; 10.4 µM in [3]; 3.72 µM in [4]; 1.86 µM in assay [5]. The GI50 in assay [6] was 5.84 µM; in assay [8], 10.8 µM; in assay [9] it was 9.13 µM. Also, the TGI turned out to be 19.9 µM in assay [1]; 21 µM in assay [2]; 29.8 µM in assay [10]; 29.6 µM in assay [3]; 16.2 µM in assay [4]; 3.68 µM in assay [5]. The values for the TGI in assay [6], in [8] and in assay [9] were 19.6 µM, 25.2 µM and 25.4 µM, respectively.
As for `NC(=O)c1ccc2c(c1)-c1nc-2nc2[n-]c(nc3nc(nc4[n-]c(n1)c1ccc(C(N)=O)cc41)-c1ccc(C(N)=O)cc1-3)c1ccc(C(N)=O)cc21.[Co+2]`, the GI50 in assay [1] is 19.5 µM; in assay [2] it was greater than 50 µM; in assay [10], greater than 50 µM; in [3], greater than 50 µM; in [4], greater than 50 µM; in [5], 16.1 µM. The GI50 in [7], in assay [8] and in [9] was greater than 50 µM throughout. Besides, the TGI in assay [1], in assay [2], in assay [10], in [3], in assay [4] and in assay [5] was greater than 50 µM each time. In addition, the TGI in [7], in assay [8] and in assay [9] was greater than 50 µM throughout.
Consider `CCOC(=O)CSc1cc(Cl)c(C)cc1S(=O)(=O)/N=C(/N=C/c1ccc([N+](=O)[O-])s1)NNC`, for which the GI50 was 20.2 µM in assay [1]; 19.7 µM in [10]; 18.8 µM in [3]; 42.7 µM in assay [4]; 17.8 µM in [5]; 11.7 µM in assay [6]. Further, the GI50 in [7] was 33.1 µM; in [8] it was 14.5 µM; in assay [9], 16.1 µM. Besides, the TGI was 42.5 µM in [1]; 49.2 µM in assay [10]; 47.8 µM in assay [3]; greater than 100 µM in assay [4]; 31.6 µM in [5]; 29.7 µM in assay [6]. Besides, the values for the TGI in assay [7], in assay [8] and in [9] were 75.8 µM, 37.2 µM and 47 µM, respectively.
`Cc1ccccc1N=Nc1c(O)ccc2ccccc12`: the TGI in assay [1], in assay [10], in [3], in assay [4], in assay [5] and in assay [6] was greater than 100 µM throughout. In addition, the TGI in assay [7], in assay [8] and in [9] was greater than 100 µM each time.
For the compound `C[C@@]1([C@H](OC(=O)c2ccccc2)C(N)=O)CO1`, the GI50 is 22.6 µM in [1]; 33.8 µM in assay [2]; 24.2 µM in assay [10]; 20.8 µM in assay [3]; 19.6 µM in assay [4]; 4.21 µM in assay [5]. Moreover, the GI50 in assay [6] is 14.9 µM; in assay [8], 20.2 µM; in [9] it was 16.9 µM. Besides, the TGI in [1] was 59.4 µM; in assay [2], 88.3 µM; in [10], 62.4 µM; in assay [3], 54.9 µM; in [4] it was greater than 100 µM; in assay [5], 24.5 µM. Moreover, the TGI in assay [6] turned out to be 41.8 µM; in [8], 61.5 µM; in [9], 41.5 µM.
Regarding `C/C(=N\O)c1ccc2ccc3ccccc3c2c1`, the TGI in assay [1] was greater than 100 µM; in [10], greater than 100 µM; in [3] it was greater than 100 µM; in assay [4], greater than 100 µM; in assay [5], 60.6 µM; in assay [6], greater than 100 µM. The TGI in assay [7] is 85.6 µM; in assay [8] it was greater than 100 µM; in assay [9], 86.9 µM.
For `CN(C)CCNC(=O)c1cccc2c1nc(-c1ccc(F)cc1)c1ccccc12`, the TGI worked out at 18.1 µM in assay [1]; 16.2 µM in assay [2]; 21.7 µM in assay [10]; 13.9 µM in [3]; 16.8 µM in assay [4]; 5.36 µM in assay [5]. For the same compound, the TGI was determined as 9.31 µM in assay [7], 18.6 µM in [8] and 19.3 µM in [9].
As to `COc1cccc(/C=C/C(=O)c2ccc3cc(OC)ccc3c2)c1`, the GI50 was 10.9 µM in assay [1]; 13 µM in assay [10]; 9.73 µM in [3]; 4.05 µM in [4]; 2.92 µM in assay [5]; 8.95 µM in assay [6]. Moreover, the figures for the GI50 in [8] and in assay [9] were 11.6 µM and 9.58 µM, respectively. Further, the TGI amounted to 19.2 µM in assay [1]; 40.8 µM in assay [10]; 30.8 µM in assay [3]; 21.7 µM in assay [4]; 14.5 µM in [5]; 22.9 µM in assay [6]. For the same compound, the TGI in assay [8] was 21 µM; in assay [9], 22.1 µM.
Regarding `CCOC(=O)c1c(-c2ccccc2)[n+](=O)c2cc(Cl)c(Cl)cc2n1[O-]`, the GI50 in assay [1] is 1.54 µM; in [2] it was 18.4 µM; in assay [10], 17.6 µM; in [3], 6.55 µM; in assay [4], 1.63 µM; in [5] it was 1.56 µM. The GI50 in assay [6] is 2.09 µM; in assay [8] it was 10.1 µM; in [9], 4.17 µM. The TGI in assay [1] was 2.87 µM; in [2], 33.9 µM; in assay [10], 34.5 µM; in assay [3], 21 µM; in assay [4], greater than 100 µM; in assay [5] it was 2.91 µM. Moreover, the TGI in assay [6] came out at 5.55 µM; in [8], 25.8 µM; in [9] it was 15.9 µM.
With `Cc1ccc(NC(=O)CCCC(=O)CC(=O)c2ccc(Br)cc2)cc1`, the TGI in [1], in assay [2], in [10], in assay [3], in [4] and in assay [5] was greater than 100 µM each time. The TGI in [7], in assay [8] and in [9] was greater than 100 µM throughout.
`CCOC(=O)C(C)(NC(=O)c1ccc(NCc2ccc3nc(NC(=O)c4ccccc4)nc(NC(=O)c4ccccc4)c3c2)cc1)C(=O)OCC`: the TGI in assay [1] is 13.3 µM; in assay [2], 22.7 µM; in assay [10] it was 39.5 µM; in assay [3] it was greater than 100 µM; in [4], 63.3 µM; in [5] it was 34.1 µM. For the same compound, the TGI in [7] is 28.4 µM; in [8], 27.5 µM; in assay [9] it was 19.9 µM.
Consider `CC(=O)OCC1OC(n2c(=S)n(-c3ccc([N+](=O)[O-])cc3)c(=O)c3ccccc32)C(OC(C)=O)C(OC(C)=O)C1OC(C)=O` (stereo unspecified), for which the GI50 in assay [1] is 17.9 µM; in [2], 21.9 µM; in [10], 18.9 µM and 28.2 µM; in [4], 29.2 µM and 20.4 µM; in assay [7] it was 10.1 µM and 20.4 µM. In addition, the TGI was 45.6 µM and 39 µM in [1]; > 76.2 µM and 53.6 µM in [2]; > 70 µM and 57.4 µM in assay [10]; greater than 100 µM in [3]; > 71 µM and 54.5 µM in assay [4]; 51.8 µM and 31.5 µM in assay [5]. The TGI in [7] was 58.4 µM and 49 µM; in [8], > 83.2 µM and 46.4 µM; in [9], > 59.8 µM and 62.3 µM.
With `CC(=O)Nc1ccc(C(=O)CCl)cc1`, the GI50 was 4.41 µM in assay [1]; 2.39 µM in assay [3]; 14.8 µM in assay [4]; 1.93 µM in [5]; 4.02 µM in [6]; 16.9 µM in [7]. In addition, the GI50 in assay [8] is 11.4 µM; in assay [9], 16 µM. The TGI in assay [1] amounted to 15.2 µM; in assay [3], 7.6 µM; in assay [4], 31 µM; in assay [5] it was 4.17 µM; in assay [6] it was 14.8 µM; in assay [7], 42.6 µM. For the same compound, the TGI was found to be 31.6 µM in assay [8] and 33.7 µM in [9].
For the compound `CCCNC(=O)Nc1c([N+](=O)[O-])cc(C(F)(F)F)cc1[N+](=O)[O-]`, the TGI in assay [1], in assay [2], in assay [10], in assay [3], in assay [4] and in [5] was greater than 100 µM in each case. Also, the TGI in assay [7], in [8] and in assay [9] was greater than 100 µM each time.
As to `CC(C)(CN1C(=O)C(Cl)=C(Cl)C1=O)CN1C(=O)C(Cl)=C(Cl)C1=O`, the TGI is 28.6 µM in assay [1]; greater than 59 µM in assay [2]; 51.5 µM in assay [10]; 48.8 µM in assay [3]; 40.4 µM in assay [4]; 33.5 µM in [5]. Also, the values for the TGI in [7], in assay [8] and in assay [9] were 53.4 µM, 21 µM and 58.8 µM, respectively.
For the compound `COC(=O)C(CO)NC(=O)C(CSC(c1ccccc1)(c1ccccc1)c1ccccc1)NC(=O)OCc1ccccc1` (stereo unspecified) (Cbz-Cys(Trt)-Ser-OMe; configuration not given here), the TGI in assay [1] is 46.9 µM; in [10] it was 41.1 µM; in assay [3], greater than 52.9 µM; in assay [4] it was 37.3 µM; in assay [5] it was 30.1 µM; in [6], 27.8 µM. Also, the TGI in assay [7] was 26.4 µM; in assay [8] it was 40.8 µM; in [9], 34.5 µM.
On to `O=S1(=O)N2CN3CN(C2)CN1C3`, for which the TGI in assay [1] is 179 µM; in assay [2], 522 µM; in assay [10], 823 µM; in assay [3] it was 53.4 µM and 67.2 µM; in [4], 712 µM; in [5] it was > 79.1 µM and 67.5 µM. The TGI in assay [7] was 188 µM; in assay [8], 44.3 µM; in assay [9] it was 63.3 µM. Further, in assay [5], the GI50 is 25.2 µM.
`C[C@H]1CC[P+](Cc2ccccc2)(c2ccccc2)C1` (stereo partly specified): the TGI in [1], in assay [2], in [10], in assay [3], in assay [4] and in assay [5] was greater than 100 µM each time. Also, the TGI in [7], in assay [8] and in assay [9] was greater than 100 µM throughout.
